Among the data in PubChem BioAssay AID1645868 (Buhrlage Lab, Dana-Farber Cancer Institute and Novartis …, 2021) are IC50 values, retold here.

For the assay, the target named is OTU domain-containing protein 3 (Homo sapiens) (UniProt Q5T2D3). Kind of assay: Validation of screening hits, potency titration, in vitro enzymatic, OTU domain-containing protein 3 DUB inhibitors (AID 1645868). Particulars: purified OTUD3, ubiquitin-rhodamine cleavage fluorescence, 2 h.

Usually IC50 stands for the midpoint of a concentration-inhibition curve.

Activity calls are given as the source filed them.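 Rule for the calls: active = maximal percent inhibition of the deubiquitinase OTUD3 of at least 30% across the tested doses; inactive = the rest.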

Chain of OTU domain-containing protein 3 (Homo sapiens) (Q5T2D3 whole entry, looked up, the tested form may be a part): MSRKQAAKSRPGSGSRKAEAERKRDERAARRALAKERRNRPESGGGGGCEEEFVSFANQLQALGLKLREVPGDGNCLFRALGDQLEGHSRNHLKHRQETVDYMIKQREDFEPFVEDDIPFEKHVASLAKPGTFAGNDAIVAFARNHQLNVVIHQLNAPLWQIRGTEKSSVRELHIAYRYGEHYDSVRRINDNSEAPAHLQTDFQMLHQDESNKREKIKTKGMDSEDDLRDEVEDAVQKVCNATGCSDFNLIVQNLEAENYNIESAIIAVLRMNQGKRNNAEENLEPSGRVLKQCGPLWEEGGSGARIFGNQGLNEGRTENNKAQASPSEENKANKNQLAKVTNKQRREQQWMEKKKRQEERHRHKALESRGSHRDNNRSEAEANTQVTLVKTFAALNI

For `C=Cc1ccc(Cn2cc(S(=O)(=O)N3CCOCC3)ccc2=O)cc1`, the IC50 was > 50 µM (inactive). For `N#Cc1cccnc1N1CCN(C(=O)Nc2cccc3ccccc23)CC1` the value was > 50 µM (inactive); for `COc1ccc(C)cc1NC(=O)C1CC(=O)Nc2nc(SCc3ccccc3)nn21` (stereo unspecified), 16.9 µM; for `CC1CCCN1C(=O)c1ccn(-c2ccc3ccc(-c4cccnc4)cn23)n1` (stereo unspecified), > 50 µM (inactive).

As to `CCOc1ccc(NC(=O)c2cc(-c3ccccc3)c(N3CCOCC3)s2)cc1`, the IC50 is 27.2 µM. Turning to `O=C(c1nnn(Cc2ccc(Cl)cc2)c1-n1cccc1)N1CCCC1`, the IC50 is > 50 µM (inactive). Take `O=C(CSc1nnc(Cn2cnc3ccccc32)o1)Nc1ccc([N+](=O)[O-])cc1`: the IC50 was 20.2 µM. Take `Cc1ccccc1OCCSc1nc2ccccc2n1CC(=O)NC1CC1`: the IC50 is 25.4 µM. For the molecule `CCC1OC(O)(C(C)C(O)C(C)C2OC(=O)/C(C)=C/C(C)=CC(C)C(O)C(C)C/C(C)=C/C=C/C2OC)CC(OC(=O)/C=C/C(=O)NC2=C(O)CCC2=O)C1C` (stereo unspecified), the IC50 was > 50 µM (inactive). As for `O=c1oc2ccccc2c2nn(-c3ccccn3)cc12`, the figure is > 50 µM (inactive); as for `Cc1cc(C)nc(SCCn2c(N3CCC(Cc4ccccc4)CC3)nc3c2c(=O)n(C)c(=O)n3C)n1`, > 50 µM (inactive); as for `Cc1ccc(C(=O)Nc2nc3n(n2)C(c2ccccc2)CC(=O)N3)cc1` (stereo unspecified), 28.6 µM. For `COc1ccc(CCNC(=O)c2c(N)n(-c3cccc(Cl)c3)c3nc4ccccc4nc23)cc1` the value was > 50 µM (inactive); for `O=C(NCc1cccc(NC(=O)C2CC2)c1)Nc1cccc2ccccc12`, 30.7 µM.

Regarding `O=C(COc1ccc(Cl)cc1)N1CCc2cc3ccccc3nc21`, the IC50 is > 50 µM (inactive).

`O=C(CCn1c(=O)c2ccccc2n(Cc2cc(=O)n3ccccc3n2)c1=O)NCCc1ccc(Cl)cc1`: the IC50 was 30.6 µM.

`COc1cc(C(=O)Nc2ccc(-c3csc(C)n3)cc2)cc(OC)c1OC`: the IC50 is > 50 µM (inactive).

With `NS(=O)(=O)c1ccc(Cl)c(C(=O)OCc2csc(Nc3ccccc3)n2)c1`, the IC50 was > 50 µM (inactive). As for `O=C(COC(=O)c1cc(Cl)ccc1O)Nc1ccc2c(c1)OCCO2`, the figure is 37.1 µM; as for `Cc1ccc(OC(=O)c2cn(-c3ccccc3)nc2-c2cccnc2)cc1`, > 50 µM (inactive).

Take `COc1ccc(-n2c(=O)c(CCC(=O)O)nc3ccccc32)cc1`: the IC50 is > 50 µM (inactive). For `Cc1cc(C)n2nc(CNc3cccc(Cl)c3)nc2n1` the value was > 50 µM (inactive).

Turning to `CCOc1ccc(NC(=O)COc2cccc3c2CCN(CC)C3=O)cc1`, the IC50 is > 50 µM (inactive). For `Cc1ccc2nc(NC(=O)C3CCCN3S(=O)(=O)c3ccc4c(c3)OCCO4)sc2c1` (stereo unspecified) the value was > 50 µM (inactive). As for `NC(=O)c1nnn(-c2ccc(NC(=O)c3ccc(F)c(F)c3)cc2)n1`, the figure is 20.3 µM; as for `CN1CC2CN(C(=O)c3ccc(F)cc3)CCN2Cc2ccccc21` (stereo unspecified), > 50 µM (inactive).

With `CCc1ccccc1NC(=O)c1cc(-c2ccccn2)n[nH]1`, the IC50 was > 50 µM (inactive). For `Cc1ccc(NC(=O)C2CCN(c3cncnc3N3CCCC3)CC2)cc1` the value was > 50 µM (inactive); for `COc1ccc(NC(=O)COc2ccc3ccc(=O)oc3c2)cc1`, > 50 µM (inactive). For the molecule `CC(=O)c1ccc(NC(=O)CC2C(=O)Nc3nc4ccccc4n32)cc1` (stereo unspecified), the 50% inhibitory concentration (IC50) is 37.2 µM. For `CCOC(=O)c1cccc(NC(=O)Nc2cccn3nc(C)nc23)c1` the value was > 50 µM (inactive); for `Cc1ccc(CNC(=O)CCCn2c(=O)c3sccc3n(CC(=O)Nc3cc(Cl)ccc3C)c2=O)cc1`, 9.57 µM. As for `Cc1cc(N2CCOCC2)nc2ccc(NC(=O)CCC(=O)Nc3ccc(F)cc3)cc12`, the figure is > 50 µM (inactive). As for `Cc1ccccc1Cn1ccc(NC(=O)c2noc(C)c2[N+](=O)[O-])n1`, the figure is > 50 µM (inactive); as for `Cn1c(CCN2CCCC2)nc2cc(NC(=O)c3ccccc3)ccc21`, > 50 µM (inactive). Take `Cc1ccc(C(=O)Nc2ccc3c(c2)C(=O)N(C)c2ccccc2O3)cc1C`: the IC50 was > 50 µM (inactive). For `Cc1c(C)n(-c2ccccc2)c2ncn(CC(=O)N(C)Cc3ccccc3)c(=O)c12` the value was > 50 µM (inactive); for `Cc1ccc(NC(=O)Cn2cc(S(=O)(=O)N3CCCC3)ccc2=O)cc1`, 27.6 µM.

`O=C(NCc1cccnc1)c1cnn2c(C(F)(F)F)cc(-c3ccc(F)cc3)nc12`: the IC50 was > 50 µM (inactive).

Turning to `Cc1sc(NC(=O)CN2CCc3ccccc3C2)nc1-c1ccc2c(c1)CCN2C(=O)C1CCCCC1`, the IC50 is > 50 µM (inactive). As for `CCOc1ccc(-c2ccc3nnc(SCC(=O)Nc4cccc(C(C)=O)c4)n3n2)cc1`, the figure is > 50 µM (inactive); as for `C/C=C\C1=CC(=O)[C@]23C[C@H]2[C@]2(C)CO[C@@]1(O)[C@@]3(O)O2`, > 50 µM (inactive); as for `COc1ccccc1NC(=O)c1nn(-c2cccc(F)c2)c(OC)cc1=O`, > 50 µM (inactive). As for `O=C(Nc1ccccc1)c1cn(-c2cc(N3CCCC3)ncn2)cn1`, the figure is > 50 µM (inactive); as for `CCn1cc(-c2nc(-c3ccccc3)no2)c(=O)c2cc(F)ccc21`, 18 µM. For `COc1ccccc1-c1ccc(SCC(=O)Nc2ccc3c(c2)OCCO3)nn1` the value was > 50 µM (inactive). On to `COc1ccc(CCNC(=O)COc2ncnc3oc(C)c(C)c23)cc1OC`, for which the IC50 is > 50 µM (inactive). Regarding `CC1CS(=O)(=O)N(c2ccc(C(=O)Nc3ccc4c(c3)OCCO4)cc2)C1=O` (stereo unspecified), the half-maximal inhibitory concentration (IC50) is 28.5 µM. For `COc1ccc(-c2ccnc(-c3ccc(OCc4cccc(F)c4)cc3)n2)cc1` the value was 45.8 µM. For `CCOc1ccccc1NC(=O)Cn1c(=O)n(CCCC(=O)NCc2ccc(C)cc2)c(=O)c2sccc21` the value was 2.78 µM; for `CC1CCc2c(sc3ncnc(NC4CCN(CC(N)=O)CC4)c23)C1` (stereo unspecified), > 50 µM (inactive). For `O=C(Nc1ccc(Oc2cccc3cccnc23)cc1)c1cccs1` the value was > 50 µM (inactive); for `O=C(NCc1ccc(-c2nc3cnccc3o2)cc1)c1ccccc1F`, 20.5 µM. Turning to `O=C(NCc1ccco1)c1ccc2c(c1)N(Cc1cccc(F)c1)C(=O)c1ccccc1S2`, the IC50 is > 50 µM (inactive). For the molecule `O=C(CCCCn1c(=O)c2ccccc2n(CC(=O)Nc2ccc(F)c(Cl)c2)c1=O)NCc1ccco1`, the IC50 is > 50 µM (inactive).

On to `COc1cc(Cl)ccc1Oc1ncnc2sc(C)c(C)c12`, for which the IC50 is > 50 µM (inactive).

Take `Cc1ccc(-c2csc(-n3ncc(C(=O)N4CCN(C(=O)Nc5cccc6ccccc56)C(C)C4)c3C(C)C)n2)cc1` (stereo unspecified): the IC50 is > 50 µM (inactive). As for `O=C(Cn1cc(S(=O)(=O)Cc2ccc(Cl)cc2)c2ccccc21)N1CCCCC1`, the figure is > 50 µM (inactive); as for `Cc1c(CC(=O)N2CCN(c3ncccn3)CC2)c(=O)oc2cc(O)ccc12`, 34.1 µM. As for `O=C(NCc1ccc2c(c1)OCO2)c1cc(-c2cc(Cl)ccc2O)n[nH]1`, the figure is 40.7 µM; as for `CCC(=O)Nc1ccc2c(c1)nc(CSc1nccc(C)n1)n2CC`, > 50 µM (inactive). For `COc1cccc2sc(N3CCN(c4nc5ccccc5s4)CC3)nc12` the value was > 50 µM (inactive); for `Cc1nn(CC(=O)NCc2ccccc2F)c2ccccc12`, > 50 µM (inactive). As to `c1coc(CNc2nc(Nc3cccc4ccccc34)nc3ccccc23)c1`, the IC50 is > 50 µM (inactive). For `Nc1nc(OCc2ccccc2)c2[nH]c(/C=C/c3cccs3)nc2n1` the value was 29 µM; for `COC(=O)c1c(C)[nH]c(C(=O)C(C)OC(=O)CCC2CCCC2)c1C` (stereo unspecified), > 50 µM (inactive); for `COc1ccc(NC(=O)c2nnn(-c3ccccc3C)c2C)cc1OC`, > 50 µM (inactive).

As to `CCn1cc(-c2cc(C(=O)Nc3cnn(Cc4cccc(F)c4)c3)c3ccccc3n2)cn1`, the IC50 is > 50 µM (inactive). As for `CS(=O)(=O)N1CCCN(c2nc3cc(Cl)ccc3n3cccc23)CC1`, the figure is > 50 µM (inactive); as for `O=S(=O)(Nc1ccc2oc(-c3ccncc3)nc2c1)c1ccccc1`, > 50 µM (inactive); as for `O=C(CN1C(=O)C2CCCC2=Nc2ccccc21)Nc1cc(F)ccc1F` (stereo unspecified), 19 µM. Consider `CCc1cccc(CC)c1NC(=O)COC(=O)c1cc2cccc(OC)c2oc1=O`, for which the IC50 was 27.6 µM. As for `COc1cccc(NC(=O)Cn2c(COc3ccccc3)nc3ccccc32)c1`, the figure is > 50 µM (inactive); as for `N#Cc1ccc(NC(=O)COC(=O)c2ccc3ccccc3n2)cc1`, > 50 µM (inactive).

For the molecule `COc1ccc(NC(=O)CSc2oc(-c3ccc(C)cc3)nc2S(=O)(=O)c2ccc(Br)cc2)c(OC)c1`, the IC50 was > 50 µM (inactive). For `CCn1c(=O)c2ccccc2n(Cc2nc(-c3ccccc3OC)no2)c1=O` the value was > 50 µM (inactive). As for `O=C(CSc1nncc2ccccc12)Nc1ccc2c(c1)OCO2`, the figure is > 50 µM (inactive); as for `COc1ccc(C2SCC(=O)Nc3c2c(=O)[nH]n3C2CCCCC2)cc1` (stereo unspecified), 23.3 µM. For `CCc1cc2cc3c(cc2nc1SCC(=O)Nc1cccc(C(C)=O)c1)OCO3` the value was 26.5 µM; for `Cc1c(OCC(=O)NCC(=O)N2CCC3(O)CCCCC3C2)ccc2c3c(c(=O)oc12)CCCC3` (stereo unspecified), > 50 µM (inactive).

As for `O=C(Nc1cccc(Cl)c1)N1CCC(c2cc(-c3ccco3)n[nH]2)CC1`, the IC50 was > 50 µM (inactive). For the molecule `COc1ccc(CNC(=O)CCc2nc3sc4c(c3c(=O)[nH]2)CCCCC4)cc1`, the IC50 was > 50 µM (inactive). As for `Cc1ccc(Cl)cc1NC(=O)c1cc(-c2ccccn2)n[nH]1`, the figure is 24.5 µM; as for `Cc1cc(=O)n(C)c2c(O)c3c(cc12)c(C)cc(=O)n3C`, > 50 µM (inactive). For `Cc1cc(=O)n(CC(=O)Nc2ccccc2F)c(Nc2ccc(F)cc2)n1` the value was 16.3 µM; for `O=C(COC(=O)c1n[nH]c2ccccc12)Nc1ccc(N2CCCCC2)cc1`, 32 µM.
